Assay results: patent US20110166191A1, “3-(2-amino-ethyl)-5-(3-cyclohexyl-propylidene)-thiazolidine-2,4-dione and its derivatives as multiple signaling pathway inhibitors and for the treatment of cancer” (priority 2010, published 2011)

Assays:
[1] = system: DU145; assay: Cell viability assay; type: cell-based; settings: Homo sapiens, DU-145, DU145 cells, 24 hrs, read-out: Inhibition of cancer cell proliferation IC50
Description: (§1) Cells were cultured at a density of 5×10^4 (U937) or 1×10^4 (PC-3, DU145, M12, HT29) cells per well in flat bottomed 96-well plates and treated with various concentrations of test compound at 37° C. (5% CO2). After 24 h, 20 μL of CellTiter 96® Aqueous One Solution Reagent (Promega, Madison, Wis.) was added to each well according to the manufacturer's instructions. After 1 hour, the cell viability was determined by measuring the absorbance at 490 nm using a micro-plate reader.

[2] = system: M12; assay: Cell viability assay; type: cell-based; settings: M12 cells, 24 hrs, read-out: Inhibition of cancer cell proliferation IC50
Description: as §1

[3] = system: PC-3; assay: Cell viability assay; type: cell-based; settings: Homo sapiens, PC-3 cells, 24 hrs, read-out: Inhibition of cancer cell proliferation IC50
Description: as §1

[4] = system: U937; assay: Cell viability assay; type: cell-based; settings: Homo sapiens, U-937, U937 cells, 24 hrs, read-out: Inhibition of cancer cell proliferation IC50
Description: as §1

[5] = Toxicity studies in mice; type: in vivo; settings: B6C3F1 mice, 20 mg/kg orally, 21 days
Description: Female B6C3F1 mice (12/group) were given example 4 orally at 30 mg/kg, 50 mg/kg and 80 mg/kg dosage or example 820 mg/kg orally for 21 days.

[6] = system: p-MEK; assay: Western blot analysis of p-MEK in U937 cells; type: cell-based; settings: PMA/TPA 200 nM stimulation
Description: FIG. 1. U937 cells were treated with Formula II prepared as described in Example 4 [i.e. 3-(2-aminoethyl)-5-(3-cyclohexylpropylidene)thiazolidine-2,4-dione] for 1 h, then stimulated with PMA (200 nM) for 30 min. Lysates were analyzed for p-Akt, p-MEK, p-ERK and α-tubulin by western blot analysis.
Cells (5×10^5 per ml) were treated with various concentrations of test compound at 37° C. (5% CO2) for 3 hrs, then stimulated with TPA at a final concentration of 200 nM for 20 min. Samples from whole-cell pellets were prepared and 30 μg protein for each condition was subjected to SDS-PAGE, transferred onto a PVDF membrane, and blocked with 5% fat-free milk for 30 min. The membrane is probed with primary antibodies overnight at 4° C. followed by incubation with horseradish peroxidase-labeled anti-mouse IgG (1:5000, BD Biosciecne). The immunoreactive bands are detected by chemiluminescence methods (Pierce) and visualized on Kodak Omat film. The following primary antibodies were used: phospho-p44/42 MAPK (ERK1/2, Thr202/Tyr204), p44/42 MAPK, phospho-p90RSK (Thr359/Ser363), RSK1/RSK2/RSK3 (Cell Signaling). Blots were reprobed with antibodies against α-tubulin to ensure equal loading and transfer of proteins.

SMILES | IC50 [1] [µM] | IC50 [2] [µM] | IC50 [3] [µM] | IC50 [4] [µM] | effects on general health and body weight [5] | p-MEK level (western blot) [6]
NCCN1C(=O)S/C(=C\CCc2ccccc2)C1=O [Example 8, 3-(2-aminoethyl)-5-(3-phenylpropylidene)thiazolidine-2,4-dione] | 30.8 | 14.8 | 14.6 | 12.2 | no effects on general health and body weight were observed | –
O=C(NOCC1CC1)c1ccc(F)c(F)c1Nc1ccc(I)cc1Cl [PD184352, reference compound] | – | – | – | – | – | dose-dependent increase in the p-MEK levels
